Drawing on ChEMBL document CHEMBL1136995, “2,6-Diphenylthiazolo[3,2-b][1,2,4]triazoles as telomeric G-quadruplex stabilizers” (Bioorg Med Chem Lett, 2009), this text covers ΔTm and Activity for ten molecules.

What is called ΔTm is the change in melting temperature against a reference sample.

Activity calls are given as the source filed them. The calls are words filed in the database; no cut-off is given here. Bounds are passed on as bounds.

Format in all cases: nucleic-acid assay
Assay [1] deals with Nucleic Acid. Put plainly: Binding affinity to G-quadruplex F21T DNA assessed as change in melting temperature at 3 uM under Na+ ionic conditions by FRET assay.
In assay [2] the test system is Nucleic Acid. Put plainly: Binding affinity to G-quadruplex F21T DNA assessed as change in melting temperature at 3 uM under K+ ionic conditions by FRET assay.
Assay [3] concerns Nucleic Acid. Put plainly: Binding affinity to G-quadruplex F21T DNA assessed as quadruplex stabilization at 3 uM by FRET assay in presence of duplex ds26 oligonucleotide.
In assay [4] the test system is Nucleic Acid. The assay can be described thus: Binding affinity to G-quadruplex F21T DNA assessed as change in melting temperature at 0.6 uM under K+ ionic conditions by FRET assay.
Assay [5] has as its system Nucleic Acid. Put plainly: Binding affinity to G-quadruplex F21T DNA assessed as change in melting temperature at 0.8 uM under K+ ionic conditions by FRET assay.
Assay [6] concerns Nucleic Acid. The assay can be described thus: Binding affinity to G-quadruplex F21T DNA assessed as change in melting temperature at 0.1 uM under K+ ionic conditions by FRET assay.
In assay [7] the test system is Nucleic Acid. Put plainly: Binding affinity to G-quadruplex F21T DNA assessed as change in melting temperature at 0.3 uM under K+ ionic conditions by FRET assay.

With `CCOC(=O)c1ccc(-c2csc3nc(-c4ccc(OCc5ccccc5)cc4)nn23)cc1`, the ΔTm with Nucleic Acid [1] and in the assay on Nucleic Acid [2] was < 1 °C each time.
In the case of `c1cc(-c2nc3scc(-c4ccc(OCCN5CCCCC5)cc4)n3n2)ccc1OCCN1CCCCC1`, the ΔTm in the assay with Nucleic Acid [1] came out at 2.1 °C; with Nucleic Acid [2], 8.7 °C. In addition, the outcome in the assay with Nucleic Acid [3] was Active.
Take `O=C(NCCN1CCCCC1)c1ccc(-c2csc3nc(-c4ccc(OCc5ccccc5)cc4)nn23)cc1`: the ΔTm in the assay on Nucleic Acid [1] is < 1 °C; in the assay with Nucleic Acid [2] it was 2.7 °C.
In the case of `Cc1oc2nc1-c1nc(co1)-c1nc(co1)-c1nc(co1)-c1nc(co1)-c1nc(co1)C1=NC(CS1)c1nc-2c(C)o1` (stereo not drawn), the figures for the ΔTm in the assay with Nucleic Acid [4] and with Nucleic Acid [5] were 10 °C and 15 °C, respectively.
Turning to `O=C(NCCN1CCCCC1)c1ccc(-c2csc3nc(-c4ccc(OCCN5CCCCC5)cc4)nn23)cc1`, the ΔTm with Nucleic Acid [1] was determined as 5 °C; with Nucleic Acid [2], 11.2 °C. Further, the outcome with Nucleic Acid [3] was Active.
For `O=C(NCCN1CCCCC1)c1ccc(-c2csc3nc(-c4ccc(OCCN5CCCC5)cc4)nn23)cc1` the same measures were 5.9 °C, 14.6 °C and “inactive”.
As to `O=C(NCCN1CCCCC1)c1ccc(-c2csc3nc(-c4ccc(O)cc4)nn23)cc1`, the ΔTm in the assay with Nucleic Acid [1] was < 1 °C; in the assay on Nucleic Acid [2], 1.8 °C.
Taken in the same sequence, the figures for `c1ccc(COc2ccc(-c3nc4scc(-c5ccc(OCc6ccccc6)cc5)n4n3)cc2)cc1` were < 1 °C and < 1 °C.
On to `NC(=O)c1cccc(C(N)=O)n1`, for which the ΔTm came to 10 °C with Nucleic Acid [6] and 15 °C in the assay on Nucleic Acid [7].
With `Oc1ccc(-c2nc3scc(-c4ccc(O)cc4)n3n2)cc1`, the ΔTm in the assay with Nucleic Acid [1] and in the assay with Nucleic Acid [2] was < 1 °C each time.
